Measured values: ChEMBL document CHEMBL4334438, “Discovery of novel glycogen synthase kinase-3α inhibitors: Structure-based virtual screening, preliminary SAR and biological evaluation for treatment of acute myeloid leukemia” (Eur J Med Chem, 2019)

Assays:
[1] = target: Protein kinase C alpha type (Homo sapiens) (UniProt P17252); test: Inhibition of recombinant human full length PKCalpha assessed as residual activity at 1 uM using histone H1 as substrate measured after 40 mins in presence of [gamma33P]ATP by scintillation counting method relative to control
[2] = test system: Serine/threonine-protein kinase N1 (Homo sapiens), Q16512 [V901I]; test: Inhibition of recombinant human PRK1 V901I mutant (498 to end residues) assessed as residual activity at 1 uM using KKLNRTLSFAEPG as substrate measured after 40 mins in presence of [gamma33P]ATP by scintillation counting method relative to control
[3] = target: Serine/threonine-protein kinase Nek2 (Homo sapiens) (UniProt P51955); test: Inhibition of recombinant full-length human NEK2 assessed as residual activity at 1 uM using myelin basic protein as substrate measured after 40 mins in presence of [gamma33P]ATP by scintillation counting based radiometry assay relative to control
[4] = target: [Pyruvate dehydrogenase (acetyl-transferring)] kinase isozyme 2, mitochondrial (Homo sapiens) (UniProt Q15119); test: Inhibition of human PDHK2 assessed as residual activity at 1 uM by radiometric method
[5] = target: Calcium/calmodulin-dependent protein kinase type 1B (Homo sapiens) (UniProt Q6P2M8); test: Inhibition of recombinant full length human CaMKIbeta assessed as residual activity at 1 uM using KKLRRTLSFAEP as substrate incubated for 40 mins in presence of [gamma-33ATP] by scintillation counting based radiometry assay relative to control
[6] = test system: Angiopoietin-1 receptor (Homo sapiens), Q02763 [Q939H,Q940H]; test: Inhibition of human Tie2 Q939H/Q940H mutant (771 to end residues) assessed as residual activity at 1 uM using poly(Glu, Tyr) 4:1 as substrate measured after 40 mins in presence of [gamma33P]ATP by scintillation counting method relative to control
[7] = target: Tyrosine-protein kinase Lck (Homo sapiens) (UniProt P06239); test: Inhibition of recombinant full length human LCK activated assessed as residual activity at 1 uM using KVEKIGEGTYGVVYK as substrate after 40 mins in presence of [gamma-33ATP] by scintillation counting based radiometry assay relative to control
[8] = target: Calcium/calmodulin-dependent protein kinase type II subunit gamma (Homo sapiens) (UniProt Q13555); test: Inhibition of recombinant human CaMK2gamma (1 to 330 residues) assessed as residual activity at 1 uM […] incubated for 40 mins in presence of [gamma-33ATP] by scintillation counting based radiometry assay relative to control
[9] = target: Ribosomal protein S6 kinase alpha-4 (Homo sapiens) (UniProt O75676); test: Inhibition of recombinant human MSK2 (2 to end residues) assessed as residual activity at 1 uM using GRPRTSSFAEGKK as substrate measured after 40 mins in presence of [gamma33P]ATP by scintillation counting method relative to control
[10] = target: Ribosomal protein S6 kinase alpha-5 (Homo sapiens) (UniProt O75582); test: Inhibition of recombinant human MSK1 (2 to end residues) assessed as residual activity at 1 uM using GRPRTSSFAEGKK as substrate measured after 40 mins in presence of [gamma33P]ATP by scintillation counting method relative to control
[11] = target: Phosphatidylinositol 4-phosphate 3-kinase C2 domain-containing subunit alpha (Homo sapiens) (UniProt O00443); test: Inhibition of recombinant human PI3KC2alpha (299 to end residues) at 1 uM assessed as residual activity at 1 uM using phosphatidylinositol as substrate measured after 40 mins by HTRF assay
[12] = target: Serine/threonine-protein kinase SIK3 (Homo sapiens) (UniProt Q9Y2K2); test: Inhibition of recombinant human SIK3 (1 to 307 residues) assessed as residual activity at 1 uM using KKKVSRSGLYRSPSMPENLNRPR as substrate measured after 40 mins in presence of [gamma33P]ATP by scintillation counting method relative to control
[13] = target: Testis-specific serine/threonine-protein kinase 4 (Homo sapiens) (UniProt Q6SA08); test: Inhibition of recombinant full-length human TSSK4 at 1 uM assessed as residual activity at 1 uM using KKLNRTLSFAEPG as substrate measured after 40 mins in presence of [gamma33P]ATP by scintillation counting method relative to control
[14] = target: Dual specificity protein kinase CLK4 (Homo sapiens) (UniProt Q9HAZ1); test: Inhibition of recombinant human CLK4 (128 to end residues) assessed as residual activity at 1 uM using YRRAAVPPSPSLSR as substrate incubated 40 mins in presence of [gamma-33ATP] by scintillation counting based radiometry assay relative to control
[15] = target: Insulin-like growth factor 1 receptor (Homo sapiens) (UniProt P08069); test: Inhibition of human IGF1R (959 to end residues) assessed as residual activity at 1 uM using KKKSPGEYVNIEFG as substrate after 40 mins by [gamma-33ATP] radiometric assay relative to control
[16] = target: Leucine-rich repeat serine/threonine-protein kinase 2 (Homo sapiens) (UniProt Q5S007); test: Inhibition of recombinant human LRRK2 (970 to end residues) assessed as residual activity at 1 uM using RLGRDKYKTLRQIRQ as substrate after 40 mins in presence of [gamma-33ATP] by scintillation counting based radiometry assay relative to control
[17] = target: G protein-coupled receptor kinase 6 (Homo sapiens) (UniProt P43250); test: Inhibition of recombinant full length human GRK6 assessed as residual activity at 1 uM using casein as substrate at 40 mins in presence of [gamma-33ATP] by scintillation counting based radiometry assay relative to control
Homo sapiens = species: Homo sapiens; test: Inhibition of recombinant human MER H628Q/R794A mutant (557 to 882 residues) assessed as residual activity at 1 uM using GGMEDIYFEFMGGKKK as substrate incubated for 40 mins in presence of [gamma-33ATP by scintillation counting based radiometry assay relative to control
[18] = target: Macrophage colony-stimulating factor 1 receptor (Homo sapiens) (UniProt P07333); test: Inhibition of recombinant human FMS (538 to end residues) assessed as residual activity at 1 uM using EEEEYEEEEEEYYIIEEEEEEYEEEEEEYYEEEEEEKKKK as substrate at 40 mins in presence of [gamma-33ATP] by scintillation counting based radiometry assay relative to control
[19] = target: Ephrin type-A receptor 3 (Homo sapiens) (UniProt P29320); test: Inhibition of recombinant human EphA3 (578 to end residues) assessed as residual activity at 1 uM using poly(Glu, Tyr) 4:1 as substrate at 40 mins in presence of [gamma-33ATP] by scintillation counting based radiometry assay relative to control
[20] = target: Bone morphogenetic protein receptor type-1B (Homo sapiens) (UniProt O00238); test: Inhibition of human ALK6 (148 to end residues) assessed as residual activity at 1 uM using casein as substrate incubated for 40 mins in presence of [gamma-33ATP] by scintillation counting based radiometry assay relative to control
Sequence of Bone morphogenetic protein receptor type-1B (Homo sapiens) (O00238 whole entry): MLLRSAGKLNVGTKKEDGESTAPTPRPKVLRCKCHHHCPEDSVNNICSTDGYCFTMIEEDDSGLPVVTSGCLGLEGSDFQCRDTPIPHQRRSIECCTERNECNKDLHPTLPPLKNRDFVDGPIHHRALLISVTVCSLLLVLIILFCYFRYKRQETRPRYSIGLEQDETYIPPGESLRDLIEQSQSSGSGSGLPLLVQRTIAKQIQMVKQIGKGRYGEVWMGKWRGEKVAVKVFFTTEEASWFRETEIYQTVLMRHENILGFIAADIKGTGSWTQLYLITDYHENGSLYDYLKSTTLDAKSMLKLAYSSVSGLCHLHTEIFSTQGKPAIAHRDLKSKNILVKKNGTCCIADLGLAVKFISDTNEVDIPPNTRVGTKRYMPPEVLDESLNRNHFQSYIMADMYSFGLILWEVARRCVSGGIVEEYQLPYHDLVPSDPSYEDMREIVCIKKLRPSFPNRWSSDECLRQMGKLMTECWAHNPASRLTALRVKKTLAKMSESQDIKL

Sequence of Insulin-like growth factor 1 receptor (Homo sapiens) (P08069 31-736 limits assumed): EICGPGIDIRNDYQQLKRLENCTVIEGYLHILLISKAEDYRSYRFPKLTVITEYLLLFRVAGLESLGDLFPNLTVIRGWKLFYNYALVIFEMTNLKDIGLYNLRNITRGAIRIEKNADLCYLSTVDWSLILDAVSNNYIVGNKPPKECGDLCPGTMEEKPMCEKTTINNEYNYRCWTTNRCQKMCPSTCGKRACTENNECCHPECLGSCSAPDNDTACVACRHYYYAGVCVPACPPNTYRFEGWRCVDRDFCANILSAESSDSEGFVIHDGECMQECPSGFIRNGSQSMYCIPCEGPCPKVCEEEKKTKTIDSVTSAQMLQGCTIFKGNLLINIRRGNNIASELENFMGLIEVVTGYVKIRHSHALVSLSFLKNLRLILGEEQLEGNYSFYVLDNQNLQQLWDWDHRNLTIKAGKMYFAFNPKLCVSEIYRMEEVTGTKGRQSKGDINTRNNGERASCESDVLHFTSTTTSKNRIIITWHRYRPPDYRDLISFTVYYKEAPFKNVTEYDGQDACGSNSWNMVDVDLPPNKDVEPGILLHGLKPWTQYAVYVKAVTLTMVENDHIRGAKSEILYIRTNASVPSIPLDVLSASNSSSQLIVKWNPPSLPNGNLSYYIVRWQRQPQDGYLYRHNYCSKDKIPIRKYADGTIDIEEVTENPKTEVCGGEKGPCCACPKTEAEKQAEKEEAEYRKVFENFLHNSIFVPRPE
Sequence of Insulin-like growth factor 1 receptor (Homo sapiens) (P08069 741-1367 limits assumed): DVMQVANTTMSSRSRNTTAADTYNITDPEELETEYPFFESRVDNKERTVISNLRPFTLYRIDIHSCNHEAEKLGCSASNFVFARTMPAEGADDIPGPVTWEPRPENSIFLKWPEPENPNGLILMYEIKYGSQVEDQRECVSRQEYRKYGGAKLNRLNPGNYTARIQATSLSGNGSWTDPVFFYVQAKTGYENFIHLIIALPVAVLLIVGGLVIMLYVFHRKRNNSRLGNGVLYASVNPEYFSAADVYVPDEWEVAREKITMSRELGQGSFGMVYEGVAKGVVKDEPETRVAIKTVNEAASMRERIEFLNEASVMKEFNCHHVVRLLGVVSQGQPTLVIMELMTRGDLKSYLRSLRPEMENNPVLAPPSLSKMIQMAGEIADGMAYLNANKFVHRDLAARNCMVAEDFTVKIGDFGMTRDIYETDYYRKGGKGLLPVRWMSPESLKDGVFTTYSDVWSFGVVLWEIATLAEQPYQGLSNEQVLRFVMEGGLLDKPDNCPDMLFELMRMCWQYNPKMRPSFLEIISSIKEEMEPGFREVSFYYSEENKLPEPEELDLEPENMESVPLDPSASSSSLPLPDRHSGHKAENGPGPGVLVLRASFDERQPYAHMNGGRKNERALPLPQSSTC
Sequence of Testis-specific serine/threonine-protein kinase 4 (Homo sapiens) (Q6SA08 whole entry): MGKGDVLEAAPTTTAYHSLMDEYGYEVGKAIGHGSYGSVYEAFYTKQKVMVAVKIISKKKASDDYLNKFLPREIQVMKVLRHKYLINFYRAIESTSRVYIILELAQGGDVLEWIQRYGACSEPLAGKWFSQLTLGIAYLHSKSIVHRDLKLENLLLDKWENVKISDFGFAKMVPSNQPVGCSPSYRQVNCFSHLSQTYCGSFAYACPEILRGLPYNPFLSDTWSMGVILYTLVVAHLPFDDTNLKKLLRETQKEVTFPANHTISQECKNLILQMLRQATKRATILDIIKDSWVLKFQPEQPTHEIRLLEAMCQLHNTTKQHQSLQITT
Sequence of Phosphatidylinositol 4-phosphate 3-kinase C2 domain-containing subunit alpha (Homo sapiens) (O00443 whole entry, the tested form may be a part): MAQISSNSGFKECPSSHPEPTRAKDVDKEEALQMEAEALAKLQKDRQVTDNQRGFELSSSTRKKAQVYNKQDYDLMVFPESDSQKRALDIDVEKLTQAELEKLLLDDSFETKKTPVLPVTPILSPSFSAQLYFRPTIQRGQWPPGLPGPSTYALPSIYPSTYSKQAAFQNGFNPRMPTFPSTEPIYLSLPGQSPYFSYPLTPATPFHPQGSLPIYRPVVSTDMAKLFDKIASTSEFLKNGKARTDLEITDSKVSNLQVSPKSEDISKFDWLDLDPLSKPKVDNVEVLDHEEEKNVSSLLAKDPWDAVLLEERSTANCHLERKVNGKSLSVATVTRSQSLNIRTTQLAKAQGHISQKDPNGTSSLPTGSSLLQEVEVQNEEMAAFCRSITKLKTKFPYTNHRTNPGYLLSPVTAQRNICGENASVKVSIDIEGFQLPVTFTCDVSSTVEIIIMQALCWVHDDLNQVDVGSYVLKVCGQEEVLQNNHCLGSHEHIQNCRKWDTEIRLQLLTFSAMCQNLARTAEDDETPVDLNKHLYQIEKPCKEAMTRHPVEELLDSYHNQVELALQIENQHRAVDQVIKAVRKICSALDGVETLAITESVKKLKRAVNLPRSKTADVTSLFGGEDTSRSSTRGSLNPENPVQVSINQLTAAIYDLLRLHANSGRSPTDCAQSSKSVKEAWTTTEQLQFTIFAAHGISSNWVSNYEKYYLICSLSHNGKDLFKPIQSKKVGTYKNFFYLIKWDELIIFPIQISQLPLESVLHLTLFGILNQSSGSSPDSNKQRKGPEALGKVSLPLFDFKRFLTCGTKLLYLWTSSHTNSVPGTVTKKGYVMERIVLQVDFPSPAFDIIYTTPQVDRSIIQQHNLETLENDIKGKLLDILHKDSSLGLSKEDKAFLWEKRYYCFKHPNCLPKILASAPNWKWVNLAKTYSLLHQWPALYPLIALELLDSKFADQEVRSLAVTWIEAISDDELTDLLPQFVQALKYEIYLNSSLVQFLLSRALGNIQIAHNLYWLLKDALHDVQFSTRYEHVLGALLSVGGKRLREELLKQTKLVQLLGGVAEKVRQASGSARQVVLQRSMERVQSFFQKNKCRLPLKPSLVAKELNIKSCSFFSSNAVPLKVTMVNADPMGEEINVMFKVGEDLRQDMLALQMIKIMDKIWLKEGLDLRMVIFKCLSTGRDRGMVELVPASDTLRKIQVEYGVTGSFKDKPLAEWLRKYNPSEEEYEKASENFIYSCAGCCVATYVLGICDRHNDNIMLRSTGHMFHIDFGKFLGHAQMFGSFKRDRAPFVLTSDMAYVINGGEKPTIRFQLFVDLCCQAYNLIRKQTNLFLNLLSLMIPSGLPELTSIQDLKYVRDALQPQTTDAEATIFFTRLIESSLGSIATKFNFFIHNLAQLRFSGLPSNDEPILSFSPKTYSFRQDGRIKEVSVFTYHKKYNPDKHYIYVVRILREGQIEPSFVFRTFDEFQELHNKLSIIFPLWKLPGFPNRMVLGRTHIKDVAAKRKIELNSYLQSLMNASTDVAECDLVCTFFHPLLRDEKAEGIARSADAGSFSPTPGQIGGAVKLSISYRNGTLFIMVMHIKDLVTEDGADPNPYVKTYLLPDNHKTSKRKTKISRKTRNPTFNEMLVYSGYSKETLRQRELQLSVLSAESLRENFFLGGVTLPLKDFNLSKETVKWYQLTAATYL
Sequence of Macrophage colony-stimulating factor 1 receptor (Homo sapiens) (P07333 whole entry): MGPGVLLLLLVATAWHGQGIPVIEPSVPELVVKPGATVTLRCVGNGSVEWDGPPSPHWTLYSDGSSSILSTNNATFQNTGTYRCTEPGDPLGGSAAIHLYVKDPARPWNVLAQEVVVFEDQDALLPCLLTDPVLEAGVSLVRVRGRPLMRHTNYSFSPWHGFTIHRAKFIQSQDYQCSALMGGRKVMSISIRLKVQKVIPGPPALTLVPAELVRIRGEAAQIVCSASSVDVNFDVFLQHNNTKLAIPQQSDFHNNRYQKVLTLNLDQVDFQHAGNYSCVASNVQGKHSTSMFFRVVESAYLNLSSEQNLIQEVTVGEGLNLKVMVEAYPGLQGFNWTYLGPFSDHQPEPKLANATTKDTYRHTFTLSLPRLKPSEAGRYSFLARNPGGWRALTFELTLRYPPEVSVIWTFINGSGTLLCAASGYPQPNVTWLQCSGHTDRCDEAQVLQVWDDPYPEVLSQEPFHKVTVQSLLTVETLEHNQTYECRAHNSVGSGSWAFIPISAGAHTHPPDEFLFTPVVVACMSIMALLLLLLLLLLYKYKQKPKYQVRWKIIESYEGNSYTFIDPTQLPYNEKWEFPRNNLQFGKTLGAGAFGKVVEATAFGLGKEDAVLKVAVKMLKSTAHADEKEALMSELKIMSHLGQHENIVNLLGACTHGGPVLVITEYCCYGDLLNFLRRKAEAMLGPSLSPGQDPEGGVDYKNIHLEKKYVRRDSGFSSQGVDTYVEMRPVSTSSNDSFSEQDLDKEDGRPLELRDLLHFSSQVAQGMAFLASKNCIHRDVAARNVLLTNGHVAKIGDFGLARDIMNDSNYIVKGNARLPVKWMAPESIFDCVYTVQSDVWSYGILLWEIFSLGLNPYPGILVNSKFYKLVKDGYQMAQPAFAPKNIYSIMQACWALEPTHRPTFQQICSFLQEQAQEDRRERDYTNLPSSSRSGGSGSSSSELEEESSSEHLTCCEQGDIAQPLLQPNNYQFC

Compound | Activity [1] [%] | Activity [2] [%] | Activity [3] [%] | Activity [4] [%] | Activity [5] [%] | Activity [6] [%] | Activity [7] [%] | Activity [8] [%] | Activity [9] [%] | Activity [10] [%] | Activity [11] [%] | Activity [12] [%] | Activity [13] [%] | Activity [14] [%] | Activity [15] [%] | Activity [16] [%] | Activity [17] [%] | Activity (Homo sapiens) [%] | Activity [18] [%] | Activity [19] [%] | further results
N=C1NC(=O)/C(=C\c2ccc(-c3cccc([N+](=O)[O-])c3)o2)S1 | 97 | 90 | 95 | 102 | 100 | 113 | 93 | 86 | 97 | 95 | 100 | 101 | 102 | 60 | 108 | 99 | 102 | 97 | 106 | 111 | Activity [20]: 103%
C=CCOC(=O)c1cc(-c2ccc(/C=C3/NC(=S)NC3=O)o2)ccc1Cl | 96 | 98 | 101 | 107 | 78 | 107 | 76 | 68 | 103 | 100 | 87 | 96 | 121 | 18 | 88 | 100 | 104 | 101 | 117 | 97 | Activity [20]: 90%
